Results taken from ChEMBL document CHEMBL5154721, “Discovery of HDAC6-Selective Inhibitor NN-390 with in Vitro Efficacy in Group 3 Medulloblastoma” (J Med Chem, 2022).
Active and inactive are the calls of the source. The calls are words filed in the database; no cut-off is given here.

Experiments:
[1] = target: Histone deacetylase 4 (Homo sapiens, UniProt P56524); assay: Inhibition of full length human recombinant HDAC4 expressed in Sf9 baculovirus system using FAM-labeled acetylated peptide as substrate by measuring fluorescence intensity by EMSA method
[2] = target: Histone deacetylase 2 (Homo sapiens, UniProt Q92769); assay: Inhibition of full length human recombinant HDAC2 expressed in Sf9 baculovirus system using FAM-labeled acetylated peptide as substrate by measuring fluorescence intensity by EMSA method
[3] = target: Histone deacetylase 1 (Homo sapiens, UniProt Q13547); assay: Inhibition of full length human recombinant HDAC1 expressed in Sf9 baculovirus system using FAM-labeled acetylated peptide as substrate by measuring fluorescence intensity by EMSA method
[4] = target: T1, Histone deacetylase 7 (Homo sapiens, UniProt Q8WUI4); assay: Inhibition of full length human recombinant HDAC7 expressed in Sf9 baculovirus system using FAM-labeled acetylated peptide as substrate by measuring fluorescence intensity by EMSA method
T1 sequence (Q8WUI4 whole entry): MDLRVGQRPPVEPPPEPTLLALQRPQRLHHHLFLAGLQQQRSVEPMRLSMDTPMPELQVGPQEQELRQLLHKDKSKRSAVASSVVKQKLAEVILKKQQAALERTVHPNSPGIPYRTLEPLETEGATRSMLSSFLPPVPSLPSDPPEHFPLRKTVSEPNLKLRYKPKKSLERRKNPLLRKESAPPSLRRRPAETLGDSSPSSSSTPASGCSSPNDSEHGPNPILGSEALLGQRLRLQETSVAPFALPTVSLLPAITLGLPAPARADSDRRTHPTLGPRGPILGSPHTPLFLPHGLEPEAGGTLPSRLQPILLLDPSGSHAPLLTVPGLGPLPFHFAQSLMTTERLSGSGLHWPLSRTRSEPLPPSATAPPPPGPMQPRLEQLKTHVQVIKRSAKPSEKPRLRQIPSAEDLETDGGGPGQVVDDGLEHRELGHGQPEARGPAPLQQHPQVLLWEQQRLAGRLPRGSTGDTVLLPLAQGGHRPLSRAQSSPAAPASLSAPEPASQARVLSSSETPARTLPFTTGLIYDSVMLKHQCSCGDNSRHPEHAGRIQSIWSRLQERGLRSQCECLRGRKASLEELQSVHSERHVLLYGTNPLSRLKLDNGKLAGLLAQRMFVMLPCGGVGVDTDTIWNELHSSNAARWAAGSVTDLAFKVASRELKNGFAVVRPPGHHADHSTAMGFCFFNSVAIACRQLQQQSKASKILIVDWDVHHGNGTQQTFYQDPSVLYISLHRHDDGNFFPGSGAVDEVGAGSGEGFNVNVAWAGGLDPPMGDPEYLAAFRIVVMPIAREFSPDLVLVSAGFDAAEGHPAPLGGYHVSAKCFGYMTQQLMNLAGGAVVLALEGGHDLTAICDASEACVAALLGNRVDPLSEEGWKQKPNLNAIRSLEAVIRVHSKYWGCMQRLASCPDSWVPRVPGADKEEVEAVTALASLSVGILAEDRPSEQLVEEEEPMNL

[5] = test system: MV4-11; assay: Induction of apoptosis in human MV4-11 cells assessed as early apoptotic cells at 0.25 uM after 24 hrs by Annexin V/PI staining based flow cytometric analysis (Rvb=2%); type: functional
[6] = test system: MV4-11; assay: Induction of apoptosis in human MV4-11 cells assessed as viable cells at 0.25 uM after 24 hrs by Annexin V/PI staining based flow cytometric analysis (Rvb=58.28%); type: functional; details: read-out: Activity
[7] = Lipophilicity, logP of the compound; type: physicochemical; details: octanol/water
[8] = target: T2, Protein deacetylase HDAC6 (Homo sapiens) (UniProt Q9UBN7); assay: Inhibition of full length human recombinant HDAC6 in human HD-MB03 cells assessed as increase in acetylation of alpha tubulin at 53 nM for 6 hrs by western blotting anlaysis; type: cell-based
T2 sequence (whole entry): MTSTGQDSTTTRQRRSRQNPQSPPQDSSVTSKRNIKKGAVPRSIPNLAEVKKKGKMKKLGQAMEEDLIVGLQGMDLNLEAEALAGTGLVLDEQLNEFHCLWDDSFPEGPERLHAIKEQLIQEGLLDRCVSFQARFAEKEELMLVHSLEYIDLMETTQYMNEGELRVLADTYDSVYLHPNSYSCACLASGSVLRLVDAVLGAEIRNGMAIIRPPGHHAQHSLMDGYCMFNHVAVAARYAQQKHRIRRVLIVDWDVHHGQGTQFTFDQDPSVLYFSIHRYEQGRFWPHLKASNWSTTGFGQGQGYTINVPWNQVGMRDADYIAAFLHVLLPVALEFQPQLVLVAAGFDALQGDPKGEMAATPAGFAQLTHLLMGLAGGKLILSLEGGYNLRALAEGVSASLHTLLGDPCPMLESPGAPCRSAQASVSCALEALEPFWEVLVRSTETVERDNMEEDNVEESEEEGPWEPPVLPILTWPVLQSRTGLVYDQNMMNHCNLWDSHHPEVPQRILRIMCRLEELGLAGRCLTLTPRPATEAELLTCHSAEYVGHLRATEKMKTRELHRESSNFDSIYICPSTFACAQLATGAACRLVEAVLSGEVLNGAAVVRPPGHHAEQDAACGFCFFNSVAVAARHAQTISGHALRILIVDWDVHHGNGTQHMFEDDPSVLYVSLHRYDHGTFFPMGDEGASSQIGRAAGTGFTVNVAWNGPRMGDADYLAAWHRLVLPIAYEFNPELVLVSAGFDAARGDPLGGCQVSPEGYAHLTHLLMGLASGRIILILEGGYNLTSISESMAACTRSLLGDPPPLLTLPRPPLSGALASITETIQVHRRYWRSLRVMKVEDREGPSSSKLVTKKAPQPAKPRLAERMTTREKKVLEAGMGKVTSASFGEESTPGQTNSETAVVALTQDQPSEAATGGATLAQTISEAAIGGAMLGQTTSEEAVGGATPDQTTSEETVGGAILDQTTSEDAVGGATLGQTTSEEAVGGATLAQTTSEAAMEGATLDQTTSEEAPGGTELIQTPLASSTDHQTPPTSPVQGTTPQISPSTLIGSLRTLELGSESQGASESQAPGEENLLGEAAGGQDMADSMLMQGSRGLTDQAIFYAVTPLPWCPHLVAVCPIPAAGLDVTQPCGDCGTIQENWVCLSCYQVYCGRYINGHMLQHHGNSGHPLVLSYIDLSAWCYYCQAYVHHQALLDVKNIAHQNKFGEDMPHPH

[9] = test system: MV4-11; assay: Induction of apoptosis in human MV4-11 cells assessed as late apoptotic cells at 2 uM after 18 hrs by Annexin V/PI staining based flow cytometric analysis; type: functional
[10] = in vitro; details: human, MRC9 cells
[11] = target: T2, Protein deacetylase HDAC6 (Homo sapiens); assay: Potency index, ratio of test compound residence time to KT-531 residence time in full length HDAC6-NanoLuc fusion protein (unknown origin) expressed in HeLa cells by NanoBRET assay; type: cell-based; details: time 5.0 min
[12] = target: T2, Protein deacetylase HDAC6 (Homo sapiens); assay: Inhibition of full length human recombinant HDAC6 in human MV4-11 cells assessed as increase in acetylation of […] for 6 hrs by immunofluorescence imaging method; type: cell-based; details: dose 0.1-2 µM, DDE = dose-dependent effect

Sequence of Histone deacetylase 4 (P56524 whole entry): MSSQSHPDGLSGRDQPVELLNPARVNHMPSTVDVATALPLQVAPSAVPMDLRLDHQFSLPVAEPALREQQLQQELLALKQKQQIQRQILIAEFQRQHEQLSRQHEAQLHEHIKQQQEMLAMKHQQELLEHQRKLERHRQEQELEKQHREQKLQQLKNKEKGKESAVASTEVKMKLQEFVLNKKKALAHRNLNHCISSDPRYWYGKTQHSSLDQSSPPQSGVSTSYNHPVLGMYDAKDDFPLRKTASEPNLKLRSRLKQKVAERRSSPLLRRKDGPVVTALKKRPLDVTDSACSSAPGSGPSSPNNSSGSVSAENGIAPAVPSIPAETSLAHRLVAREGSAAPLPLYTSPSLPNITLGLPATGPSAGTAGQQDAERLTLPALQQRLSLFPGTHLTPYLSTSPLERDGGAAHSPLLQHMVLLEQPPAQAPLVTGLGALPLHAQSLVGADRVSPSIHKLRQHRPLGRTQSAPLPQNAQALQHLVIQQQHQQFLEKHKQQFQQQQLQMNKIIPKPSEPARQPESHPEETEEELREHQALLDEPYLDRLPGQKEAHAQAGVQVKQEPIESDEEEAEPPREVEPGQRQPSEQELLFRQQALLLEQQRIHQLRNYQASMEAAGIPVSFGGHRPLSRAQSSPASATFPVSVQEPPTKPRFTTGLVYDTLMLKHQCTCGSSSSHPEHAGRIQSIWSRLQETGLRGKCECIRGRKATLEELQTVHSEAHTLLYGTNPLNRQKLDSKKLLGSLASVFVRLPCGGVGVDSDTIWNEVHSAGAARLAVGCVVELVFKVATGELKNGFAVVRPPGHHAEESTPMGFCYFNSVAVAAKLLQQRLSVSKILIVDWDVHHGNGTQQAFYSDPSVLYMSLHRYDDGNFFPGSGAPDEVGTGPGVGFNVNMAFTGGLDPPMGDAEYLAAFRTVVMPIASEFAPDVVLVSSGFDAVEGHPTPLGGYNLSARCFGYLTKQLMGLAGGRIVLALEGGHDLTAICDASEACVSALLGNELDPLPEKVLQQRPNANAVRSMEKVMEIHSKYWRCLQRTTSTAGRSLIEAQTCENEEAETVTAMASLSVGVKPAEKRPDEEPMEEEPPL
Sequence of Histone deacetylase 1 (Q13547 whole entry): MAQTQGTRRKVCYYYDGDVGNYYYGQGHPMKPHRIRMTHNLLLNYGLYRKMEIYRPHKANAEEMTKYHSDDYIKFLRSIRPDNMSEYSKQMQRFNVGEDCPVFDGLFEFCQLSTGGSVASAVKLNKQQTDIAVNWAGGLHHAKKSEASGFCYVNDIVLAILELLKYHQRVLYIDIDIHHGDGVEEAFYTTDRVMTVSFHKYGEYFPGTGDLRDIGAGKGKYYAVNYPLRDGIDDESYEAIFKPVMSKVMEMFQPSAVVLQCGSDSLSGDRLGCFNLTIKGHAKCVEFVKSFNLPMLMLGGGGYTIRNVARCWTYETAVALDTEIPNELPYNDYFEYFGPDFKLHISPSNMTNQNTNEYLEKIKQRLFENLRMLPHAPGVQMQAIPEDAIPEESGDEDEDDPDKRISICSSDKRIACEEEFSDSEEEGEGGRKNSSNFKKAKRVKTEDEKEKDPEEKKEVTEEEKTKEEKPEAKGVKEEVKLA
Sequence of Histone deacetylase 2 (Q92769 whole entry): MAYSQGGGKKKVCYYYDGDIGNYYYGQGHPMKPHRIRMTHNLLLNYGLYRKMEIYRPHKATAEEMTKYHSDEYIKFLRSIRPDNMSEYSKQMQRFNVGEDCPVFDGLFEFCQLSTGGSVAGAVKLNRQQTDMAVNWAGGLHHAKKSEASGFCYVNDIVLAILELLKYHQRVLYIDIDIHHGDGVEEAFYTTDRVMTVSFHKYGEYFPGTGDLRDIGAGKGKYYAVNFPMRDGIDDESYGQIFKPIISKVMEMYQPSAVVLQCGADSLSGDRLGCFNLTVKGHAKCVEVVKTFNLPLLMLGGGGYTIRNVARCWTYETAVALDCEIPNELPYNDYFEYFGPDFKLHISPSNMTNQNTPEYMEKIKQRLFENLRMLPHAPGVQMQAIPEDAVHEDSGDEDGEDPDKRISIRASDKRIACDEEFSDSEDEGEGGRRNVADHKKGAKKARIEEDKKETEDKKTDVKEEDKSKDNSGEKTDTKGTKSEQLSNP

## CC(C)N(Cc1ccc(C(=O)NO)cc1)S(=O)(=O)c1cc(F)c(F)c(F)c1F
[1]
  IC50: > 4 µM
[2]
  IC50: 0.316 µM
[3]
  IC50: > 5 µM
[4]
  IC50: > 5 µM
[5]
  Activity: 3.6%
[6]
  viability at 0.25 µM: 82%
[7]
  logP: 3.41
[8]
  inhibition: Active
[9]
  Activity: 39%
[10]
  IC50 at 72 h: > 50 µM
[11]
  fold change (FC): 1.9
[12]
  inhibition: Dde
